Columns and labels:
NIH3T3 = assay: Inhibitory activity tested in NIH 3T3 cells; assay type: functional, cell-based; conditions: Mus musculus
[1] = Inhibitory activity against TGF-beta dependent luciferase production in mink lung cells p3TP Lux; assay type: functional, cell-based
[2] = target: Mitogen-activated protein kinase 14 (Homo sapiens, UniProt Q16539); assay: Inhibitory activity against Mitogen-activated protein kinase p38
Sequence of Mitogen-activated protein kinase 14 (Q16539 whole entry): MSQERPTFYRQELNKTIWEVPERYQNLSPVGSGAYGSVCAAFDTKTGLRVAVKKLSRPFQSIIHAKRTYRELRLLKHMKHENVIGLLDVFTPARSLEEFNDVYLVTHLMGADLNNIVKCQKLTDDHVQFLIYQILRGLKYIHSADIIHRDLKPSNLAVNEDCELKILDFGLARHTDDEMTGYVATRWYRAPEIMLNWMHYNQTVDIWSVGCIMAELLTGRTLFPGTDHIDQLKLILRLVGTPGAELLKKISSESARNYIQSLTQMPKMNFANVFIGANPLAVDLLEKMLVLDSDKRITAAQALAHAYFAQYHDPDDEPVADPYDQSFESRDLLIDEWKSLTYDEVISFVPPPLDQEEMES

| Structure (SMILES) | IC50 [1] | IC50 [2] | IC50 (NIH3T3) |
| --- | --- | --- | --- |
| Cc1cccc(-c2nn3c(c2-c2ccc(F)cc2)CCC3)n1 | 96 nM | > 20 µM | 339 nM |
| CC(C)c1cccc(-c2nn3c(c2-c2ccnc4ccccc24)CCC3)n1 | 2000 nM | 15 µM | 2000 nM |
| Cc1ccc(-c2c(-c3cccc(C)n3)nn3c2CCC3)cc1 | > 20000 nM |  | > 20000 nM |
| Cc1cccc(-c2nn3c(c2-c2ccc(F)c(F)c2)CCC3)n1 | 1510 nM |  | 1040 nM |
| CCSc1ccc2c(-c3c(-c4ccccn4)nn4c3CCC4)ccnc2c1 | 285 nM | 1.6 µM | 326 nM |
| c1ccc(-c2nn3c(c2-c2ccnc4ccccc24)CCC3)nc1 | 345 nM | 7.9 µM | 51000 nM |
| COc1ccc(-c2c(-c3cccc(C)n3)nn3c2CCC3)cc1 | 304 nM | 4.6 µM | 397 nM |
| CCc1cccc(-c2nn3c(c2-c2ccnc4ccccc24)CCC3)n1 | 143 nM | 0.62 µM | 500 nM |
| COc1ccc(-c2c(-c3ccccn3)nn3c2CCC3)cc1 | 6830 nM |  | 4710 nM |
| Cc1cccc(-c2n[nH]cc2-c2ccc(O)cc2)n1 |  | 31 µM |  |
| OCc1cccc(-c2nn3c(c2-c2ccc(F)cc2)CCC3)n1 | 11800 nM |  | 5620 nM |
| Fc1ccc(-c2c(-c3ccccn3)nn3c2CCC3)cc1 | 3860 nM | > 20 µM | 3330 nM |

Now from value to compound, other results behind:

| IC50 [1] | IC50 [2] | Structure (SMILES) | IC50 (NIH3T3) |
| --- | --- | --- | --- |
| 2550 nM |  | Fc1ccc(-c2c(-c3cccc(C(F)(F)F)n3)nn3c2CCC3)cc1 | 1200 nM |
| 22 nM | 4.3 µM | Cc1cccc(-c2nn3c(c2-c2ccc(O)cc2)CCC3)n1 | 105 nM |
| 93 nM | 0.44 µM | Cc1cccc(-c2nn3c(c2-c2ccnc4cc(Cl)ccc24)CCC3)n1 | 727 nM |
| > 20000 nM | 9.8 µM | CCS(=O)(=O)c1ccc2c(-c3c(-c4ccccn4)nn4c3CCC4)ccnc2c1 |  |
| > 20000 nM |  | Cc1cccc(-c2nn3c(c2-c2ccc(S(C)(=O)=O)cc2)CCC3)n1 | > 20000 nM |
| 475 nM | 11 µM | Fc1ccc(-c2nn3c(c2-c2ccnc4ccccc24)CCC3)nc1 | 664 nM |
| 94 nM | 0.68 µM | Cc1cccc(-c2nn3c(c2-c2ccnc4ccccc24)CCC3)n1 | 280 nM |
| 196 nM | 1.8 µM | Clc1ccc2c(-c3c(-c4ccccn4)nn4c3CCC4)ccnc2c1 | 282 nM |
| 86 nM | 0.059 µM | CCOc1ccc2c(-c3c(-c4cccc(C)n4)nn4c3CCC4)ccnc2c1 | 152 nM |
